This passage reports IC50 results from patent publication US20250162989A1, “USP30 INHIBITORS AND USES THEREOF” (Vincere Biosciences, Inc., priority 2021, published 2025).

As a reminder, the IC50 is the concentration that inhibits the measured activity by half.

recombinant USP30 (amino acids 57-517 of the human sequence), sequence (Q70CQ3 57-517): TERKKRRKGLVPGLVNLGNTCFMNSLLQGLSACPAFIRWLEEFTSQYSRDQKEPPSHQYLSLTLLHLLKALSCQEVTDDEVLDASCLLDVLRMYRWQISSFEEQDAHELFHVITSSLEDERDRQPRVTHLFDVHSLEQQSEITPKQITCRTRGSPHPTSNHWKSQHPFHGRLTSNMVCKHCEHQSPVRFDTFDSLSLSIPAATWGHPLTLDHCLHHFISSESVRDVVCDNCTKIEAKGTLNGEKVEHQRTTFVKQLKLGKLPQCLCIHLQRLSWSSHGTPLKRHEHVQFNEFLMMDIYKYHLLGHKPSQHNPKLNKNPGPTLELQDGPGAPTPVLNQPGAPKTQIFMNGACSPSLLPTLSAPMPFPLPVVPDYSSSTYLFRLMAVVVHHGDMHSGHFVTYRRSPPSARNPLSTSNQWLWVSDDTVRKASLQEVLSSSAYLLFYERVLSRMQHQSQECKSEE

The first assay concerns the target recombinant USP30 (amino acids 57-517 of the human sequence) (Homo sapiens (Human), UniProt Q70CQ3). Nature of the assay: In vitro USP30 biochemical assay (Ubiquitin-Rhodamine substrate). Conditions: 1.5 nM recombinant USP30, 25 nM Ubiquitin-Rhodamine, fluorescence. How it is done: In vitro biochemical assay to establish the potency of compounds for USP30 inhibition: a 384-well plate assay using a fluorophore tagged substrate of USP30 was used for in vitro screening of compounds. Each compound was tested at
10 different concentrations (0.5 to 10,000 nM) in duplicate wells. […] Data were analyzed using Graph Pad Prism software with a four-parameter (floating slope) fit to log concentration data to determine IC50s.
Turning to `COc1cc(NC(=O)[C@H](CC2CCN(C)CC2)NC(=O)c2ccc(F)cc2)ccc1S(=O)(=O)NC1COC1` [Compound I-96], the IC50 is 0.05 to 1 µM.
For the compound `Cn1nccc1CNS(=O)(=O)c1ccc(NC(=O)[C@H](CC2CCNCC2)NC(=O)c2ccc(F)cc2)cc1` [Compound I-224], the IC50 is 0.05 to 1 µM.
Consider `CC(C)(C)NS(=O)(=O)c1ccc(NC(=O)[C@@H](NC(=O)c2ccc(F)cc2)C(C)(C)C)cc1` [Compound I-77], for which the IC50 lay in the range of 1 to 10 µM.
Take `CN1CCC(C[C@H](NC(=O)c2ccc(F)cc2)C(=O)Nc2ccc(S(=O)(=O)NC(C)(C)CO)cc2)CC1` [Compound I-44]: the half-inhibitory concentration (IC50) fell in the range of 0.05 to 1 µM.
The same measure, in the same setting: next, `CC(C)(CO)NS(=O)(=O)c1ccc(NC(=O)[C@H](CC2CC2)NC(=O)c2ccc(F)cc2)cc1` [Compound I-46]: 0.05 to 1 µM.
Same read-out and setting: the result for `CC(=O)O[C@H]1C[C@@H](C(=O)Nc2ccc(S(=O)(=O)NC(C)(C)C)cc2)N(C(=O)c2ccc(F)cc2)C1` [Compound I-285] reads 1 to 10 µM; that for `CC(C)(C)C[C@H](NC(=O)c1ccc(F)cc1)C(=O)Nc1ccc(S(=O)(=O)NC(C)(C)C)cc1` [Compound I-25], 0.05 to 1 µM.
Same read-out and setting: the result for `COc1cc(NC(=O)[C@H](Cc2ccccc2)NC(=O)c2ccc(F)cc2)c(Cl)cc1S(=O)(=O)NC1(CO)CC1` [Compound I-139] reads 1 to 10 µM; that for `CC(C)(C)NS(=O)(=O)c1ccc(NC(=O)[C@H](Cc2ccccc2)NC(=O)N2CC3(COC3)C2)cc1` [Compound I-179], 1 to 10 µM; that for `CC(C)C[C@H](NC(=O)c1ccc(F)cc1)C(=O)Nc1ccc(S(=O)(=O)NC(C)(C)C(F)(F)F)nc1` [Compound I-203], 0.05 to 1 µM.
On to `COc1cc(NC(=O)[C@H](CC2CCOCC2)NC(=O)c2ccc(F)cc2)cnc1S(=O)(=O)NC(C)(C)CO` [Compound I-76], for which the half-maximal inhibitory concentration (IC50) was 0.05 to 1 µM.
`O=C(N[C@@H](CC1CC1)C(=O)Nc1ccc(S(=O)(=O)NC2COC2)cc1)c1ccc(F)cc1` [Compound I-48]: the IC50 was in the range of 1 to 10 µM.
On to `O=C(Nc1ccc(S(=O)(=O)NC2COC2)nc1)[C@@H]1C[C@@H](c2ccccc2)CN1C(=O)c1ccc(F)cc1` [Compound I-271], for which the IC50 was in the range of 1 to 10 µM.
For `CC(C)C[C@H](NC(=O)N1CCOCC1)C(=O)Nc1cccc2c(S(=O)(=O)NC(C)(C)C)cccc12` [Compound I-216], the concentration for half-maximal inhibition (IC50) lay within 1 to 10 µM.
With `COc1cc(NC(=O)[C@H](CC(C)C)NC(=O)c2ccc(F)cc2)cnc1S(=O)(=O)NC(C)(C)CO` [Compound I-73], the half-inhibitory concentration (IC50) lay in the range of 1 to 10 µM.
Regarding `CC(C)(CO)NS(=O)(=O)c1ccc(NC(=O)[C@H](CC2CCOCC2)NC(=O)c2ccc(F)cc2)cn1` [Compound I-74], the IC50 was in the range of 0.05 to 1 µM.
Consider `CC(C)(CF)NS(=O)(=O)c1ccc(NC(=O)[C@H](Cc2ccccn2)NC(=O)c2ccc(F)cc2)cc1` [Compound I-213], for which the 50% inhibitory concentration (IC50) lay within 0.05 to 1 µM.
`O=C(N[C@@H](Cc1ccccc1)C(=O)Nc1ccc(S(=O)(=O)NCc2ccncn2)cc1)c1ccc(F)cc1` [Compound I-222]: the IC50 lay in the range of 0.05 to 1 µM.
Take `COc1cc(NC(=O)[C@H](Cc2ccccc2)NC(=O)c2ccc(F)cc2)c(Cl)cc1S(=O)(=O)NC(C)(CO)CO` [Compound I-142]: the IC50 fell in the range of 1 to 10 µM.
In the case of `CC(C)C[C@H](NC(=O)c1ccc(F)cc1)C(=O)Nc1ccc(S(=O)(=O)NC2COC2)cc1` [Compound I-22], the IC50 was 0.05 to 1 µM.
For the compound `CC(C)CC[C@H](NC(=O)c1ccc(F)cc1)C(=O)Nc1ccc(S(=O)(=O)NC2COC2)cc1` [Compound I-24], the IC50 lay within 0.05 to 1 µM.
Same read-out and setting: the result for `COCC[C@H](NC(=O)c1ccc(F)cc1)C(=O)Nc1ccc(S(=O)(=O)NC2COC2)cc1` [Compound I-28] reads 1 to 10 µM; that for `CC(C)(CO)NS(=O)(=O)c1ccc(NC(=O)[C@@H]2C[C@@H](C3CCCCC3)CN2C(=O)c2ccc(F)cc2)cn1` [Compound I-258], 1 to 10 µM; that for `CN1CCC(C[C@H](NC(=O)c2ccc(F)cc2)C(=O)Nc2ccc(S(=O)(=O)NC3COC3)nc2)CC1` [Compound I-104], 1 to 10 µM.
Same read-out and setting: next, `CN1CCN(C(=O)N[C@@H](Cc2ccccc2)C(=O)Nc2ccc(S(=O)(=O)NC(C)(C)C)cc2)CC1` [Compound I-180]: 1 to 10 µM; `O=C(N[C@@H](CC1CCNCC1)C(=O)Nc1ccc(S(=O)(=O)N[C@@H]2CCOC2)nc1)c1ccc(F)cc1` [Compound I-108]: 0.05 to 1 µM.
As for `CC(C)(C)NS(=O)(=O)c1ccc(NC(=O)[C@H](Cc2ccccc2)NC(=O)c2ccc3nn[nH]c3c2)cc1` [Compound I-189], the IC50 was 0.05 to 1 µM.
As for `CN(C)CC[C@H](NC(=O)c1ccc(F)cc1)C(=O)Nc1ccc(S(=O)(=O)NC(C)(C)C)cc1` [Compound I-240], the IC50 was 0.05 to 1 µM.
`O=C(N[C@@H](Cc1ccccc1)C(=O)Nc1ccc(S(=O)(=O)NC23CC(C2)C3)c(O)c1)c1ccc(F)cc1` [Compound I-64]: the IC50 was 0.05 to 1 µM.
For the compound `CC(C)(C)NS(=O)(=O)c1ccc(NC(=O)[C@@H]2C[C@@H](C3CCCCC3)CN2C(=O)c2ccc(F)cc2)cn1` [Compound I-260], the half-inhibitory concentration (IC50) is 0.05 to 1 µM.
For `CC(C)(NS(=O)(=O)c1ccc(NC(=O)[C@H](Cc2ccccn2)NC(=O)c2ccc(F)cc2)cc1)C(F)(F)F` [Compound I-212], the half-inhibitory concentration (IC50) lay within 0.05 to 1 µM.
On the same count and under the same terms, the result for `O=C(N[C@@H](Cc1ccccc1)C(=O)Nc1ccc(S(=O)(=O)NCc2cnccn2)cc1)c1ccc(F)cc1` [Compound I-223] reads 0.05 to 1 µM.

The assay is the same for the next values; noted with them: […] recombinant USP30, 25 nM Ubiquitin-Rhodamine, fluorescence.
For `CC(C)(NS(=O)(=O)c1ccc(NC(=O)[C@H](CC2CCOCC2)NC(=O)c2ccc(F)cc2)cc1)C(F)(F)F` [Compound I-126], the IC50 is below 0.05 µM.
For `CC(C)C[C@H](NC(=O)c1ccc(F)cc1)C(=O)Nc1ccc(S(=O)(=O)NC(C)(C)C)nc1` [Compound I-16], the 50% inhibitory concentration (IC50) was below 0.05 µM.
As to `CC(C)(C)NS(=O)(=O)c1ccc(NC(=O)[C@H](CC2CCN(c3ccccc3)CC2)NC(=O)c2ccc(F)cc2)cc1` [Compound I-116], the IC50 is below 0.05 µM.
Take `CC(C)(CCO)NS(=O)(=O)c1ccc(NC(=O)[C@H](CC2CCOCC2)NC(=O)c2ccc(F)cc2)cc1` [Compound I-6]: the 50% inhibitory concentration (IC50) is below 0.05 µM.
As to `CC(C)(C)NS(=O)(=O)c1cccc2c(NC(=O)[C@H](Cc3ccccc3)NC(=O)C3CCNCC3)cccc12` [Compound I-187], the IC50 was above 10 µM.
The same measure, in the same setting: the result for `N#CN1CCC(NC(=O)[C@H](Cc2ccccc2)NC(=O)c2ccc(F)cc2)CC1` [Compound I-124] reads above 10 µM; that for `O=C(N[C@@H](Cc1ccccc1)C(=O)NC1CCN(C(=O)OCc2ccccc2)CC1)c1ccc(F)cc1` [Compound I-113], above 10 µM; that for `CC(C)(C)NS(=O)(=O)c1ccc(NC(=O)[C@H](Cc2ccccc2)NC(=O)c2ncccn2)cc1` [Compound I-191], above 10 µM.
In the case of `CC1(NC(=O)[C@H](Cc2ccccc2)NC(=O)c2ccc(F)cc2)CN(C#N)C1` [Compound I-250], the IC50 is below 0.05 µM.
Same read-out and setting: next, `Cn1cnc(CNS(=O)(=O)c2ccc(NC(=O)[C@H](Cc3ccccc3)NC(=O)c3ccc(F)cc3)cc2)c1` [Compound I-238]: below 0.05 µM.
Same read-out and setting: the result for `CC(C)C[C@@H](NC(=O)c1ccc(F)cc1)C(=O)Nc1ccc(S(=O)(=O)NC(C)(C)C)cc1` [Compound I-12] reads above 10 µM; that for `CC(C)(C)NS(=O)(=O)c1ccc(NC(=O)[C@H](Cc2ccccc2)NC(=O)c2c[nH]cn2)cc1` [Compound I-176], above 10 µM.
